The results in this text go back to patent US20050020576A1, “Kappa agonist compounds and pharmaceutical formulations thereof” (priority 1996, published 2005).

Where “and” joins values, the source holds several entries; their conditions need not be identical. Identical values can stand only once. Counter-ions that a name gives are not always drawn.

Data set [1] addresses T1, cloned human kappa receptor (Homo sapiens, UniProt P41145). The experiment in a line: [3H]U69593 (agonist) binding to the cloned human kappa receptor.
Data set [2] concerns the target T1, cloned human kappa receptor. The experiment in a line: biochemical. It is filed as binding. The conditions noted are these: for inhibition at 1 µM: read-out: 3H-Diprenorphin, % @ 1 uM; for Ki: nM 3H-Diprenorphin.
Data set [3] deals with formalin-induced flinching. The experiment in a line: animal or person. It is filed as in vivo, male Sprague-Dawley rats. The conditions noted are these: rat, in vivo.

One may read the Ki as the equilibrium dissociation constant of an inhibitor or competing ligand from its target. The melting point is the temperature of the solid-liquid transition.

T1 sequence (P41145 whole entry): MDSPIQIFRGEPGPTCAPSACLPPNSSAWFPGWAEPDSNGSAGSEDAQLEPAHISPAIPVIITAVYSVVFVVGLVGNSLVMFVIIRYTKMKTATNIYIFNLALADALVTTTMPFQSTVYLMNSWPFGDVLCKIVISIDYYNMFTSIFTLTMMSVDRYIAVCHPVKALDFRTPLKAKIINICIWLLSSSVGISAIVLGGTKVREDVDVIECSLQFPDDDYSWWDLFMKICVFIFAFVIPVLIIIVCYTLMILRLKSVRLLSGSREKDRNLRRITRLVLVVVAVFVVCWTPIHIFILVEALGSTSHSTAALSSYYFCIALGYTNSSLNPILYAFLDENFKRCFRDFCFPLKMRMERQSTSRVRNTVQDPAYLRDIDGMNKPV

Take `Cl.Cl.O=C(O)CN1CCN(C(=O)Cc2ccc(Cl)c(Cl)c2)[C@H](CN2CCCC2)C1` [(R-3c), (R)-4-[(3,4-dichlorophenyl)acetyl]-3-[(1-pyrrolidinyl)methyl]-1-piperazineacetic acid dihydrochloride]: the melting point is 190 °C (dec.). Moreover, in data set [1] (Ki, nM 3H-U-69,593), the Ki is 23 nM and 21 nM. The inhibition at 1 µM in data set [2] was found to be 62%. Moreover, the “Late Phase Formalin, % @ 300; i.paw” value in data set [3] is reported as 26% @ 300.
On to `Cl.O=CN1CCN(C(=O)Cc2ccc(Cl)c(Cl)c2)[C@H](CN2CCCC2)C1` [(R-3j), (R)-4-[(3,4-Dichlorophenyl)acetyl]-3-[(1-pyrrolidinyl)methyl]-1-piperazinecarboxaldehyde hydrochloride], for which the melting point was 126 °C (dec.). In addition, in data set [1] (Ki, nM 3H-U-69,593), the Ki is 0.4 nM. The inhibition at 1 µM in data set [2] is 96%. For the same molecule, the “Late Phase Formalin, % @ 300; i.paw” value in data set [3] is given as 65% @ 300.
Turning to `Cl.NC(=O)N1CCN(C(=O)Cc2ccc(Cl)c(Cl)c2)[C@H](CN2CCCC2)C1` [(R-3i), (R)-4-[(3,4-Dichlorophenyl)acetyl]-3-[(1-pyrrolidinyl)methyl]-1-piperazinecarboxamide hydrochloride], the Ki is 2.9 nM in data set [1] (Ki, nM 3H-U-69,593); 56 nM and 29 nM in data set [2]. In data set [3], the “Late Phase Formalin, % @ 300; i.paw” value is 68% @ 300.
Take `Cl.Cl.NC(CC(=O)O)C(=O)N1CCN(C(=O)Cc2ccc(Cl)c(Cl)c2)[C@H](CN2CCCC2)C1` (stereo partly drawn) [(R-3e), (R)-4-Aspartic acid-1-[(3,4-dichlorophenyl)acetyl]-2-[(1-pyrrolidinyl)methyl]-piperazine dihydrochloride]: in data set [1] (dihydrochloride, read-out: Ki, nM 3H-U-69,593), the Ki is 37 nM and 28 nM. In data set [2], the “3H-Diprenorphin, % @ 1 uM” value is recorded as 39% @ 1 uM. For the same molecule, the “Late Phase Formalin, % @ 300; i.paw” value in data set [3] was found to be 22% A @ 300.
For `Cl.O=C(Cc1ccc(Cl)c(Cl)c1)N1CCN(Cc2ccccc2)C[C@H]1CN1CCCC1` [(R-1), (R)-4-(Phenylmethyl)-1-[(3,4-dichlorophenyl)acetyl]-2-[(1-pyrrolidinyl)methyl]piperazine hydrochloride], the melting point was 168 to 170 °C. The molecule further returned a Ki in data set [1] (Ki, nM 3H-U-69,593) of 9.3 nM. In addition, the Ki in data set [2] is 57 nM and 38 nM. The “Late Phase Formalin, % @ 300; i.paw” value in data set [3] worked out at 53% @ 300.
For `Cl.O=C(Cc1ccc(Cl)c(Cl)c1)N1CCNC[C@@H]1CN1CCCC1` [(R-2), (R)-1-[(3,4-Dichlorophenyl)acetyl]-2-[(1-pyrrolidinyl)methyl]piperazine hydrochloride], the Ki in data set [1] (Ki, nM 3H-U-69,593) is 1.5 nM and 1.3 nM; in data set [2], 14 nM and 17 nM. Moreover, the “Late Phase Formalin, % @ 300; i.paw” value in data set [3] is recorded as 57% @ 300.
The molecule `CC(=O)N1CCN(C(=O)Cc2ccc(Cl)c(Cl)c2)[C@H](CN2CCCC2)C1.Cl` [(R-3f), (R)-4-Acetyl-1-[(3,4-dichlorophenyl)acetyl]-2-[(1-pyrrolidinyl)methyl]-piperazine hydrochloride] registered a melting point of 153 to 155 °C. In addition, the Ki in data set [1] (Ki, nM 3H-U-69,593) is 0.11 nM and 0.14 nM. Moreover, the Ki in data set [2] is 4.2 nM and 1.4 nM. Besides, the “Late Phase Formalin, % @ 300; i.paw” value in data set [3] is 95% @ 300.
Take `COC(=O)N1CCN(C(=O)Cc2c[nH]c3ccccc23)C(CN2CCCC2)C1` (racemic) [(R,S-9c), (R,S)-Methyl 4-[(3-indolyl)acetyl]-3-[(1-pyrrolidinyl)-methyl]-1-piperazine-carboxylate hydrochloride]: the Ki in data set [1] (Ki, nM 3H-U-69,593) was 0.27 nM and 0.4 nM; in data set [2] it was 3 nM. Besides, the “Late Phase Formalin, % @ 300; i.paw” value in data set [3] is on record as 95% @ 300.
Regarding `COC(=O)N1CCN(C(=O)Cc2ccccc2OC)C(CN2CCCC2)C1` (racemic) [(R,S-9e), hydrochloride], the inhibition constant (Ki) is 0.46 nM and 1.3 nM in data set [1] (Ki, nM 3H-U-69,593); 7.3 nM in data set [2]. Besides, the “Late Phase Formalin, % @ 300; i.paw” value in data set [3] worked out at 98% @ 300.
On to `CS(=O)(=O)N1CCN(C(=O)Cc2ccc(Cl)c(Cl)c2)[C@H](CN2CCCC2)C1.Cl` [(R-3a), (R)-4-Methanesulfonyl-1-[(3,4-dichlorophenyl)acetyl]-2-[(1-pyrrolidinyl)methyl]-piperazine hydrochloride], for which the melting point fell in the range of 130 to 132 °C. In data set [1] (Ki, nM 3H-U-69,593), the Ki was 0.19 nM and 0.5 nM. Besides, the Ki in data set [2] is 0.2 nM and 1.3 nM. In data set [3], the “Late Phase Formalin A50 (mg); i.paw” value is 14 (5.6-29) mg.
Consider `COC(=O)N1CCN(C(=O)Cc2ccc(C(F)(F)F)cc2)C(CN2CCCC2)C1` (racemic) [(R,S-9b), (R,S)-Methyl 4-[(4-trifluoromethylphenyl)acetyl]-3-[(1-pyrrolidinyl)-methyl]-1-piperazinecarboxylate hydrochloride], for which the Ki is 0.076 nM and 0.13 nM in data set [1] (Ki, nM 3H-U-69,593); 0.49 nM in data set [2]. In data set [3], the “Late Phase Formalin, % @ 300; i.paw” value is 98% @ 300.
Regarding `CS(=O)(=O)N1CCN(C(=O)Cc2ccc(Cl)c(Cl)c2)C(CN2CCCC2)C1` (racemic) [(R,S-8a), (R,S)-4-Methanesulfonyl-1-[(3,4-dichlorophenyl)acetyl]-2-[(1-pyrrolidinyl)methyl]-piperazine hydrochloride], the Ki in data set [1] (Ki, nM 3H-U-69,593) was 0.37 nM and 0.65 nM; in data set [2], 5.4 nM and 4 nM. Moreover, in data set [3], the “Late Phase Formalin, % @ 300; i.paw” value was 96% @ 300.
In the case of `CCOP(=O)(OCC)N1CCN(C(=O)Cc2ccc(Cl)c(Cl)c2)[C@H](CN2CCCC2)C1` [(R-3g), (R)-4-(Diethoxyphosphonate)-1-[(3,4-dichlorophenyl)acetyl]-2-[(1-pyrolidinyl)methyl]-piperazine hydrochloride], the Ki in data set [1] (Ki, nM 3H-U-69,593) was 1.3 nM and 1.4 nM; in data set [2], 99 nM and 33 nM. In data set [3], the “Late Phase Formalin, % @ 300; i.paw” value is reported as 54% @ 300.
In the case of `COC(=O)N1CCN(C(=O)Cc2ccccc2N)C(CN2CCCC2)C1` (racemic) [(R,S-9f), (R,S)-Methyl 4-[(2-aminophenyl)acetyl]-3-[(1-pyrrolidinyl)-methyl]-1-piperazine-carboxylate dihydrochloride], the Ki is 0.67 nM and 0.41 nM in data set [1] (Ki, nM 3H-U-69,593); 4.6 nM and 3.2 nM in data set [2]. For the same molecule, in data set [3], the “Late Phase Formalin, % @ 300; i.paw” value came to 97% @ 300.
As to `O=C(Cc1ccc(Cl)c(Cl)c1)N1CCN(C(=O)C(F)(F)F)C[C@H]1CN1CCCC1` [(R-3h), (R)-4-Trifluoroacetyl-1-(3,4-dichlorophenyl)acetyl]-2-[(1-pyrrolidinyl)methyl]-piperazine hydrochloride], the Ki in data set [1] (Ki, nM 3H-U-69,593) is 0.26 nM and 0.16 nM; in data set [2], 6.9 nM and 1.8 nM. Moreover, the “Late Phase Formalin, % @ 300; i.paw” value in data set [3] is 94% @ 300.
For the molecule `CC(C)(C)CC(=O)N1CCN(C(=O)Cc2ccc(Cl)c(Cl)c2)[C@H](CN2CCCC2)C1` [(R-3b), (R)-4-t-Butyl-acetyl-1-[(3,4-dichlorophenyl)acetyl]-2-[(1-pyrrolidinyl)methyl]-piperazine], in data set [1], the “3H-U-69,593, % @ 1 uM” value worked out at 75% @ 1 uM. The “3H-Diprenorphin, % @ 1 uM” value in data set [2] is reported as 30% @ 1 uM. Besides, the “Late Phase Formalin column, % I @ 1 μM” value in data set [3] is on record as 75% I @ 1 μM.
